The results in this text go back to patent US11541056B2, “3-hydroxy-N-(3-(7H-pyrrolo[2,3-d]pyrimidin-4-yl)phenyl)pyrrolidine-1-carboxamide derivatives” (NOVARTIS AG, priority 2018, dated 2023).

One assay concerns the target T1, BTK-GFP (Homo sapiens, UniProt Q06187+Q96SW2).
T1 construct: the BTK open reading frame (ORF) was first shuttled from a pcDNA-DEST40-BTK vector (Invitrogen library ID INV_20090504v1); expressed in transfected cells; host or cells: HEK293A cells (Invitrogen R70507), lentiviral transduction with pLenti6-BTK-GFP-Ires-RFP, blasticidin-selected
Description: BTK-GFP protein abundance flow cytometry assay in HEK293A cells. It counts as cell-based. To be noted: 24 h; for BTK deg Amax %: % protein remaining at concentration of maximum degradation; for DC50: concentration at which 50% maximal degradation was observed. The method, then: Compounds of the invention were tested in the following cellular assays. The terms in Table 1 are defined as follows: DC50 refers to the concentration at which 50% maximal degradation was observed; deg Amax is the extent of degradation and the value refers to the % protein remaining at the concentration at which maximum degradation is seen; Prol GI50 refers to the proliferation data and defines the concentration at which 50% growth inhibition was observed compared to the vehicle treated control at the end of the incubation time. TMD8 cells are BTK dependent and OCI-LY3 cells are BTK independent.
(§1) BTK-GFP and IKZF3-GFP Protein Abundance Flow Cytometry Assay in HEK293A Cells:
(§2) Degradation of BTK or IKZF3 was measured in HEK293A cells (Invitrogen R70507) expressing either BTK-GFP and RFP or IKZF3-GFP and RFP from a stably integrated bicistronic BTK-GFP-iresRFP or IKZF3-GFP-iresRFP construct, respectively. Reduction of the GFP signal measured by flow cytometry served as readout for BTK or IKZF3 degradation after degrader treatment.
(§3) Stable HEK293A-BTK-GFP-iresRFP cells were maintained in complete growth medium (DMEM high Glucose+10% FCS+1% L-Glutamine+1% NEAA+1% NaPyr.) with passaging performed twice per week. On Day 0, HEK293A-BTK-GFP-iresRFP or HEK293A-IKZF3-GFP-iresRFP and HEK293A-iresRFP cells were seeded at 10,000 cells/well in a 96-well microtiter plate in 260 μl complete medium. On Day 1, cells were treated in duplicate with 10-point 1:3 dilution series of compound using the HP D300 Digital Dispenser (Tecan). DMSO concentrations were normalized across the plate to 0.1%. On Day 2, after 24 h of incubation at 37° C., treatment media was discarded, cells rinsed with 100 ul/well PBS and then detached using 40 ul trypsin/well for 5 min. Trypsin was neutralized with 100 ul/well PBS+20% FCS). Flow cytometry was performed on the samples using the BD FACS CANTO II (Becton Dickinson). Cell identification was then performed using forward (FSC) vs. side scatter (SSC) plots. Single cell discrimination is performed using SSC-Width (SSC-W) vs. SSC-Height (SSC-H) plots. Median GFP values for 5,000 single cells are used to determine BTK levels. Median GFP values from HEK293A-iresRFP are used as a background signal and thus defining 0% BTK signal. Median GFP values from DMSO treated HEK293A-BTK-GFP-iresRFP or HEK293A-IKZF3-GFP-iresRFP are used to define 100% BTK signal for subsequent DC50 curves (concentration at 50% BTK degradation). GFP and RFP are read in the channels called FITC and PE, respectively.
(§4) Concentration response curves plotting relative reduction of the GFP signal (measured by flow cytometry) versus 10 compound concentrations (starting concentration 10 μM, 3 fold dilution steps) of the compounds allowed generation of DC50 values.
In general terms: Flow cytometry measures light scatter and fluorescence of single cells or particles in a stream.

For the next assay, the target named is T2, IKZF3-GFP (Homo sapiens, UniProt Q9UKT9).
T2 construct: gateway cloning of IKZF3 from a pENTR221-IKZF3(STOP-Leu) construct into the previously described pLenti6-DEST-GFP-Ires-RFP vector; expressed in transfected cells; host or cells: HEK293A cells (Invitrogen R70507), lentiviral transduction with pLenti6-IKZF3-GFP-Ires-RFP, blasticidin-selected
Description: IKZF3-GFP protein abundance flow cytometry assay in HEK293A cells. It counts as cell-based. To be noted: 24 h, Table 1; for IKZF3 deg Amax %: % protein remaining at maximum degradation. As to the method:
Compounds of the invention were tested in the following cellular assays. […] TMD8 cells are BTK dependent and OCI-LY3 cells are BTK independent.
as §1, §2, §3, §4
Data is shown in Table 2, in which, DC50 refers to the concentration at which 50% maximal degradation was observed; deg Amax is the extent of degradation and the value refers to the % protein remaining at the concentration at which maximum degradation is seen.

T2 sequence (Q96SW2 whole entry partner): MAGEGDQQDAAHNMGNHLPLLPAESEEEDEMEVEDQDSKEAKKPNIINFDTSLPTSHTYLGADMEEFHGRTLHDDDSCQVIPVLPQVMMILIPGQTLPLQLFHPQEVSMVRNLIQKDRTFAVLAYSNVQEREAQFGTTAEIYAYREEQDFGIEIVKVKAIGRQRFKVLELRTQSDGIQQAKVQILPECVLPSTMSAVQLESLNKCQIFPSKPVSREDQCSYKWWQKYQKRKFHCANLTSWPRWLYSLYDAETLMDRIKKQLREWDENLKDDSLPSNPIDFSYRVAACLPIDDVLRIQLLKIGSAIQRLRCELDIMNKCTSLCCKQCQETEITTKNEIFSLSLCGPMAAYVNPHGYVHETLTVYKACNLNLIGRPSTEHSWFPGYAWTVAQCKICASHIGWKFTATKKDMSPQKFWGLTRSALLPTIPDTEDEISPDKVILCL
T2 sequence (Q16531 whole entry partner): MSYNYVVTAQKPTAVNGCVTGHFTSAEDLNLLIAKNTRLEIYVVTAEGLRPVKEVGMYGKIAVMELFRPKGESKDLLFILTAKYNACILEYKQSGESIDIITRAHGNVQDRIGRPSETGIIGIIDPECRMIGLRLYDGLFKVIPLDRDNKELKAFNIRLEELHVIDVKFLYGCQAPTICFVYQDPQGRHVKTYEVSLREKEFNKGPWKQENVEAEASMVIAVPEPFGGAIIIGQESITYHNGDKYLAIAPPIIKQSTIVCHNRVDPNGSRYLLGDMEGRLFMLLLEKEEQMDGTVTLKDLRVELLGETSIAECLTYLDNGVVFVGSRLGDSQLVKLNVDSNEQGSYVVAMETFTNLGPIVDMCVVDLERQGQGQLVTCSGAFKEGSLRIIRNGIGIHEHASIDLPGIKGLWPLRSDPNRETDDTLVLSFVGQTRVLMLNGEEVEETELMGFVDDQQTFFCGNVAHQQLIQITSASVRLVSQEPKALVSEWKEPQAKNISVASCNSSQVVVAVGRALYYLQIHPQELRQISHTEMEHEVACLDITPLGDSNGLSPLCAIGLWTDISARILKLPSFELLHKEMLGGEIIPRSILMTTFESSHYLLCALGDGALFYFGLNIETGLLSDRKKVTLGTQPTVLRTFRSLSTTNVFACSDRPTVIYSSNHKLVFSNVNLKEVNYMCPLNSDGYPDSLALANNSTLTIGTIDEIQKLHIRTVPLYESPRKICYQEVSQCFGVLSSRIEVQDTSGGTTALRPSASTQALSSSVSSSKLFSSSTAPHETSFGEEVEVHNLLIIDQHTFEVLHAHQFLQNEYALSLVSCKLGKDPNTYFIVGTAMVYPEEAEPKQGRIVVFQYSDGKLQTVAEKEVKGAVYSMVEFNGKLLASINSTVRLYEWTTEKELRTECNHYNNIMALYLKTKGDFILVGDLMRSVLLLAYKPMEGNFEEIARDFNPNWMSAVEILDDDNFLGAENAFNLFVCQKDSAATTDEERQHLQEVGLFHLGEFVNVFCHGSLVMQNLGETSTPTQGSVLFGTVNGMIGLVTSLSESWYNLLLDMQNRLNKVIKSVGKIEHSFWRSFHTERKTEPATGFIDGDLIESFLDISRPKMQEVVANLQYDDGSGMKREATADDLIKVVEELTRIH
T2 sequence (Q9UKT9 whole entry): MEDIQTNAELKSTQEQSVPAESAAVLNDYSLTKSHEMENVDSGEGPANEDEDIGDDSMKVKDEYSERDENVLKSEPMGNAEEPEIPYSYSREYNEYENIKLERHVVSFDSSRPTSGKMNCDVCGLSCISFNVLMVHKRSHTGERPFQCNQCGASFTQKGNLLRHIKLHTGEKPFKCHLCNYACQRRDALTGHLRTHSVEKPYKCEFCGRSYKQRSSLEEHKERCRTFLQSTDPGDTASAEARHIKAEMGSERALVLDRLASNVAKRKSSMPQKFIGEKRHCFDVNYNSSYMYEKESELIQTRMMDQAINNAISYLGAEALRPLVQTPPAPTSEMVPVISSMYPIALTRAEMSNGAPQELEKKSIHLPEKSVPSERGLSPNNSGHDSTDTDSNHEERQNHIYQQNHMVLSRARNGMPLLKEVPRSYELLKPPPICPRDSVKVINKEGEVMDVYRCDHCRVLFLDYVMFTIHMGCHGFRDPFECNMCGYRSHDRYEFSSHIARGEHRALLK
T1 sequence (Q06187 whole entry): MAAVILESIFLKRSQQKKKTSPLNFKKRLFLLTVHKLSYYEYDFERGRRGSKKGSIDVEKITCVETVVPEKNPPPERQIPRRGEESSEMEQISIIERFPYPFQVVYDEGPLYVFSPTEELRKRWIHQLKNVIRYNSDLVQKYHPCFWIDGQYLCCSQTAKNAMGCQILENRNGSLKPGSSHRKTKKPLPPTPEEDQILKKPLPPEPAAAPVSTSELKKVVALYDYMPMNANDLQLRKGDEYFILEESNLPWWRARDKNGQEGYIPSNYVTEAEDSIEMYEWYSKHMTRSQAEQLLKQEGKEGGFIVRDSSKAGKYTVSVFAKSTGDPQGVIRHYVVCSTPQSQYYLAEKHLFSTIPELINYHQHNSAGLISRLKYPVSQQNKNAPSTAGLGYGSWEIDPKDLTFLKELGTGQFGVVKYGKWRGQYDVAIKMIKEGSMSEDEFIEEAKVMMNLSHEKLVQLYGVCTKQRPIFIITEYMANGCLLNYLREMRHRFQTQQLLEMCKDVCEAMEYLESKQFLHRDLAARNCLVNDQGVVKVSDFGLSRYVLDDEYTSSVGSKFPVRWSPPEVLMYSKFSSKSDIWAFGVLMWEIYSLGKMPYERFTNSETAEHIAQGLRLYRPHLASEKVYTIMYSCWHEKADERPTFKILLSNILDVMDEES
T1 sequence (Q96SW2 whole entry): as the sequence (Q96SW2 whole entry partner) above
T1 sequence (Q16531 whole entry partner): as the sequence (Q16531 whole entry partner) above

As to `COc1ccc(C(=O)N2CCC3(CCN(Cc4ccc(-c5cc6c(-c7cc(F)cc(NC(=O)N8C[C@@H](CC(C)C)[C@H](O)C8)c7C)ncnc6[nH]5)cc4)CC3)CC2)cc1N1CCC(=O)NC1=O` (racemic) [Compound 5, trans-rac-N-(3-(6-(4-((9-(3-(2,4-Dioxotetrahydropyrimidin-1(2H)-yl)-4-methoxybenzoyl)-3,9-diazaspiro[5.5]undecan-3-yl)methyl)phenyl)-7H-pyrrolo[2,3-d]pyrimidin-4-yl)-5-fluoro-2-methylphenyl)-3-hydroxy-4-isobutylpyrrolidine-1-carboxamide], on BTK-GFP, the “BTK deg Amax %” value is 4% and the DC50 was 4.9 nM. Further, at IKZF3-GFP, the “IKZF3 deg Amax %” value was found to be 103.7% and the DC50 was greater than 3300 nM.
Consider `COc1ccc(C(=O)N2CCC3(CCN(Cc4ccc(-c5cc6c(-c7cc(F)cc(NC(=O)N8C[C@@H](CC(C)C)[C@H](O)C8)c7C)ncnc6[nH]5)cc4)CC3)CC2)cc1N1CCC(=O)NC1=O` [Compound 1, (3S,4R)—N-(3-(6-(4-((9-(3-(2,4-Dioxotetrahydropyrimidin-1(2H)-yl)-4-methoxybenzoyl)-3,9-diazaspiro[5.5]undecan-3-yl)methyl)phenyl)-7H-pyrrolo[2,3-d]pyrimidin-4-yl)-5-fluoro-2-methylphenyl)-3-hydroxy-4-isobutylpyrrolidine-1-carboxamide], for which, on BTK-GFP, the “BTK deg Amax %” value came out at 15% and the DC50 was determined as 164 nM. Further, at IKZF3-GFP, the “IKZF3 deg Amax %” value was 102.7% and the DC50 was greater than 1100 nM.
In the same order, the values of `COc1ccc(C(=O)N2CCC(OCCN3CCN(Cc4ccc(-c5cc6c(-c7cc(F)cc(NC(=O)N8C[C@H](CC(C)C)[C@@H](O)C8)c7C)ncnc6[nH]5)cc4)CC3)CC2)cc1N1CCC(=O)NC1=O` [Compound 2, (3R,4S)—N-(3-(6-(4-((4-(2-((1-(3-(2,4-Dioxotetrahydropyrimidin-1 (2H)-yl)-4-methoxybenzoyl)piperidin-4-yl)oxy)ethyl)piperazin-1-yl)methyl)phenyl)-7H-pyrrolo[2,3-d]pyrimidin-4-yl)-5-fluoro-2-methylphenyl)-3-hydroxy-4-isobutylpyrrolidine-1-carboxamide] are 2%, 1.4 nM, 101.8% and greater than 3300 nM.
Turning to `COc1ccc(C(=O)N2CCC3(CCN(Cc4ccc(-c5cc6c(-c7cc(F)cc(NC(=O)N8C[C@H](CC(C)C)[C@@H](O)C8)c7C)ncnc6[nH]5)cc4)CC3)CC2)cc1N1CCC(=O)NC1=O` [Compound 6, (3R,4S)—N-(3-(6-(4-((9-(3-(2,4-Dioxotetrahydropyrimidin-1(2H)-yl)-4-methoxybenzoyl)-3,9-diazaspiro[5.5]undecan-3-yl)methyl)phenyl)-7H-pyrrolo[2,3-d]pyrimidin-4-yl)-5-fluoro-2-methylphenyl)-3-hydroxy-4-isobutylpyrrolidine-1-carboxamide], on BTK-GFP, the “BTK deg Amax %” value is 6.2% and the DC50 worked out at 3.4 nM. Besides, on IKZF3-GFP, the “IKZF3 deg Amax %” value turned out to be 93.5% and the DC50 was greater than 3300 nM.
On to `COc1ccc(C(=O)N2CCC(OC3CCN(Cc4ccc(-c5cc6c(-c7cc(F)cc(NC(=O)N8C[C@H](CC(C)C)[C@@H](O)C8)c7C)ncnc6[nH]5)cc4)CC3)CC2)cc1N1CCC(=O)NC1=O` [Compound 8, (3R,4S)—N-(3-(6-(4-((4-((1-(3-(2,4-Dioxotetrahydropyrimidin-1(2H)-yl)-4-methoxybenzoyl)piperidin-4-yl)oxy)piperidin-1-yl)methyl)phenyl)-7H-pyrrolo[2,3-d]pyrimidin-4-yl)-5-fluoro-2-methylphenyl)-3-hydroxy-4-isobutylpyrrolidine-1-carboxamide], for which, on BTK-GFP, the “BTK deg Amax %” value worked out at 4.5% and the DC50 worked out at 1 nM. Moreover, at IKZF3-GFP, the “IKZF3 deg Amax %” value was 107.4% and the DC50 was greater than 1000 nM.
The matching figures for `COc1ccc(C(=O)N2CCC(CN3CCC(Oc4ccc(-c5cc6c(-c7cc(F)cc(NC(=O)N8C[C@H](CC(C)C)[C@@H](O)C8)c7C)ncnc6[nH]5)cc4)CC3)CC2)cc1N1CCC(=O)NC1=O` [Compound 11, (3R,4S)—N-(3-(6-(4-((1-((1-(3-(2,4-Dioxotetrahydropyrimidin-1 (2H)-yl)-4-methoxybenzoyl)piperidin-4-yl)methyl)piperidin-4-yl)oxy)phenyl)-7H-pyrrolo[2,3-d]pyrimidin-4-yl)-5-fluoro-2-methylphenyl)-3-hydroxy-4-isobutylpyrrolidine-1-carboxamide]: 2.3%, 0.6 nM, 96.7% and greater than 10000 nM.
The matching figures for `COc1ccc(C(=O)N2CCC(CN3CCN(Cc4ccc(-c5cc6c(-c7cc(F)cc(NC(=O)N8C[C@H](CC(C)C)[C@@H](O)C8)c7C)ncnc6[nH]5)cc4)CC3)CC2)cc1N1CCC(=O)NC1=O` [Compound 12, (3R,4S)—N-(3-(6-(4-((4-((1-(3-(2,4-Dioxotetrahydropyrimidin-1(2H)-yl)-4-methoxybenzoyl)piperidin-4-yl)methyl)piperazin-1-yl)methyl)phenyl)-7H-pyrrolo[2,3-d]pyrimidin-4-yl)-5-fluoro-2-methylphenyl)-3-hydroxy-4-isobutylpyrrolidine-1-carboxamide]: 4.3%, 0.7 nM, 104.0% and greater than 1100 nM.
The matching figures for `COc1ccc(C(=O)N2CCC(OC3CCN(CCc4ccc(-c5cc6c(-c7cc(F)cc(NC(=O)N8C[C@H](CC(C)C)[C@@H](O)C8)c7C)ncnc6[nH]5)cc4)CC3)CC2)cc1N1CCC(=O)NC1=O` [Compound 13, (3R,4S)—N-(3-(6-(4-(2-(4-((1-(3-(2,4-Dioxotetrahydropyrimidin-1(2H)-yl)-4-methoxybenzoyl)piperidin-4-yl)oxy)piperidin-1-yl)ethyl)phenyl)-7H-pyrrolo[2,3-d]pyrimidin-4-yl)-5-fluoro-2-methylphenyl)-3-hydroxy-4-isobutylpyrrolidine-1-carboxamide]: 2.9%, 0.5 nM, 99.7% and greater than 3300 nM.
For `COc1ccc(C(=O)N2CCC3(CCN(CCc4ccc(-c5cc6c(-c7cc(F)cc(NC(=O)N8C[C@H](CC(C)C)[C@@H](O)C8)c7C)ncnc6[nH]5)cc4)CC3)CC2)cc1N1CCC(=O)NC1=O` [Compound 15, (3R,4S)—N-(3-(6-(4-(2-(9-(3-(2,4-Dioxotetrahydropyrimidin-1(2H)-yl)-4-methoxybenzoyl)-3,9-diazaspiro[5.5]undecan-3-yl)ethyl)phenyl)-7H-pyrrolo[2,3-d]pyrimidin-4-yl)-5-fluoro-2-methylphenyl)-3-hydroxy-4-isobutylpyrrolidine-1-carboxamide], on BTK-GFP, the “BTK deg Amax %” value is recorded as 4% and the DC50 amounted to 1.8 nM. For the same compound, at IKZF3-GFP, the “IKZF3 deg Amax %” value is 100.2% and the DC50 is greater than 5500 nM.
